Results reported in publication PMC7335202, “A quaternary ammonium silane antimicrobial triggers bacterial membrane and biofilm destruction” (Scientific Reports, 2020).

Target: T1, Sortase A (Streptococcus mutans, UniProt Q8CM62)
T1 construct: gene srtA
T1 sequence (Q8CM62 1-246): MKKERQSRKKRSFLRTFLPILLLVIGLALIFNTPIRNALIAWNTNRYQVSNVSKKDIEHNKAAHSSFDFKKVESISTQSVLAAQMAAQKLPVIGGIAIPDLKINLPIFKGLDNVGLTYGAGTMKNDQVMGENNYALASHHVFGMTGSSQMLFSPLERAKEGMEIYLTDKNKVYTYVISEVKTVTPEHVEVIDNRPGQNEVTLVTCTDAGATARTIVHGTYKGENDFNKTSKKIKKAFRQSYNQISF
Experiment: fluorescent peptide (Dabcyl-QALPETGEE-Edans) cleavage assay with purified sortase A; positive control inhibitor
Format: biochemical

O=C(O)c1cc[c]([Hg][OH])cc1 [pHMB, ρ-hydroxymercuribenzoic acid]
IC50: 24.5 ± 4.1 µM
